Test results: paper PMC6927504, “Screening of House Dust from Chinese Homes for Chemicals with Liver X Receptors Binding Activities and Characterization of Atherosclerotic Activity Using an in Vitro Macrophage Cell Line and ApoE^−/− Mice” (Environmental Health Perspectives, 2019)
Like-named read-outs stand apart in the source and are kept apart here.

Key:
[1] = target: T1, human LXRβ (Homo sapiens, UniProt P55055); assay: Yeast two-hybrid assay (LXRβ LBD with coactivator TIF2, β-galactosidase readout)
T1 sequence (P55055 219-460): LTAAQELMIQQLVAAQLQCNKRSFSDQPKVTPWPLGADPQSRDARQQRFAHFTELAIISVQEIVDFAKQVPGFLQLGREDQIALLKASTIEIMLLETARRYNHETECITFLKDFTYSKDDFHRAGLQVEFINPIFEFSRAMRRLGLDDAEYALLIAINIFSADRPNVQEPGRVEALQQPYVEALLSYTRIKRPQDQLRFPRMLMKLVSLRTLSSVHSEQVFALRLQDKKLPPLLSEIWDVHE

[2] = target: T1, human LXRβ; assay: cell-based
[3] = target: T2, human LXRα (Homo sapiens, UniProt Q13133); assay: cell-based
T2 construct: expressed in transfected cells; host or cells: Saccharomyces cerevisiae Y187
T2 sequence (Q13133 205-447): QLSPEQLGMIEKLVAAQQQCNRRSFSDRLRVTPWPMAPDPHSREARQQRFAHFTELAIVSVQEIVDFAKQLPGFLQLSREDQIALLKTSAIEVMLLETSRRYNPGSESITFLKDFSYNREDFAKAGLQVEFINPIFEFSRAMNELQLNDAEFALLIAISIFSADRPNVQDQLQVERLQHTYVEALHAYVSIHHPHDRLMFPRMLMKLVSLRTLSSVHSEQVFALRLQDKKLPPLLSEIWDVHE

[4] = test system: atherosclerotic mice; design: method as in Joseph et al. 2002; conditions: ref Joseph et al. 2002; cited from earlier work
[5] = target: T3, human LXRα (Homo sapiens, UniProt Q13133); format: binding
T3 construct: the full-length human LXRα gene was amplified by polymerase chain reaction (PCR); made in house; host or cells: E. coli BL21
T3 sequence (Q13133 1-447): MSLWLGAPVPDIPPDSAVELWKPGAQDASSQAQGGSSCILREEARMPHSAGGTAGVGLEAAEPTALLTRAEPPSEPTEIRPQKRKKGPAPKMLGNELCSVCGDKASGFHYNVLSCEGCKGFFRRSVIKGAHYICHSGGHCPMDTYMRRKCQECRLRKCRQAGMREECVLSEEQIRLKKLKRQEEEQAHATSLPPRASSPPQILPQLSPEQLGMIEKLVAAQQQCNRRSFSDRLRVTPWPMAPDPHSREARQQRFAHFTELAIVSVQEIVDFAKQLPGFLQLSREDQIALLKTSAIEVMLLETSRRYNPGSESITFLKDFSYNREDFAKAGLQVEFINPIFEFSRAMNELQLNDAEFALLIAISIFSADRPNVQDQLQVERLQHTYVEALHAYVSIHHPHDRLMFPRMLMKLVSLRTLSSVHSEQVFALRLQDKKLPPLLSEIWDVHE

[6] = test system: ABCA1; assay: qRT-PCR of LXR target gene ABCA1 in RAW264.7 macrophages; format: cell-based; conditions: TO901317 at 5–100 nM with TPHP 10,000 nM
Method: (§1) RAW264.7 cells were obtained from the National Infrastructure of Cell Line Resource of Beijing, China, and the cells used for the experiment were cultured for at least three passages. Dulbecco’s Modified Eagle’s Medium (DMEM)-F12 medium containing 10% fetal bovine serum (FBS) was employed to culture the RAW264.7 cells. RAW264.7 cells were incubated at 37°C with 5% carbon dioxide. The RAW264.7 cells were plated at 2.5×10^5 cells/well (6-well plates), 6.0×10^4 cells/well (24-well plates), and 10^4 cells/well (96-well plates). The RAW264.7 cells were plated and grown overnight; then the medium was removed and fresh DMEM-F12 contained with 0.1% DMSO (control; n=3 ) or TPHP at the concentrations of 1–20,000 nM ( n=3 per group) was added. […] Then the cells were used for the quantitative reverse transcription (qRT)-PCR, cellular cholesterol efflux assay, and foam cell formation experiment.
(§2) Total RNA was isolated from RAW264.7 cells and mouse peritoneal macrophages using TRIzol reagent according to the manufacturer’s instructions. Then a Nanovue Plus™ spectrophotometer (GE Healthcare Life Science) was used to analyze the concentration, quality, and purity of the RNA. Total RNA ( 1μg ) was mixed with oligo deoxythymine (dT) ( 1μL ) at 70°C for 5 min and then combined with a mixture containing Moloney murine leukemia virus (MMLV) reverse transcriptase ( 1μL ), deoxy-ribonucleoside triphosphate (dNTP) ( 1.25μL ), Recombinant RNasin® Ribonuclease Inhibitor (Promega) ( 0.65μL ), and MMLV buffer ( 5μL ) at 42°C for 60 min. The SYBR® Green PCR Kit (TOYOBO) was used for RT-PCR analysis. Real-time fluorescence detection was performed using the StepOnePlus™ sequence detection system (Applied Biosystems). […] The following primers were designed and purchased from Sangon Biotech:
(§3) • actin: 5′-[…]-3′ and 5′-[…]-3′ ATP-binding cassette transporter A1 (ABCA1): 5′-[…]-3′ and 5′-[…]-3′ • ATP-binding cassette transporter G1 (ABCG1): 5′-[…]-3′ and 5′-[…]-3′.

[7] = test system: ABCG1; assay: qRT-PCR of LXR target gene ABCG1 in RAW264.7 macrophages; format: cell-based; conditions: TO901317 at 5–100 nM with TPHP 10,000 nM
Method: as §1, §2, §3

[8] = dust standard reference material SRM2585
[9] = range over indoor dust samples (Table S4)

For CCCCC(CC)COP(=O)(Oc1ccccc1)Oc1ccccc1 (centres unmarked) [EHDPP, 2-ethylhexyl diphenyl phosphate], the “Contribution to the LXRβ-antagonist activity of SRM2585” value [1, 8] was 1.55%, the “Share of the LXRβ-antagonist activity of indoor dust explained by the chemical” value [1, 9] was 0.01–22.92% and the IC50 [2] was 2.17 µM. The IC50 [3] was 5.69 µM, the “Contribution to the LXRα-antagonist activity of SRM2585” value [3, 8] was 3.01% and the “Share of the LXRα-antagonist activity of indoor dust explained by the chemical” value [3, 9] was 0.01–25.02%.

In the case of O=C(O)Cc1cccc(OCCCN(Cc2cccc(C(F)(F)F)c2Cl)CC(c2ccccc2)c2ccccc2)c1 [GW3965], the Atherosclerotic plaques [4] is given as “promoted regression of atherosclerotic plaques” and the Foam cell formation [4] is given as “inhibited foam cell formation”.

In the case of O=[N+]([O-])c1ccc(O)cc1 [PNP, p-nitrophenol], the EC50 [1] is reported as 15.1 µM and the EC50 ([3]; agonist mode, β-galactosidase activity, n=3) is reported as 14 µM.

CCOC(=O)c1ccc(CN(Cc2ccc(-c3cccc(S(C)(=O)=O)c3)cc2)S(=O)(=O)c2c(C)cc(C)cc2C)o1 [SR9238, reference compound] gave an IC50 [2] of 0.446 µM and an IC50 ([3]; read-out: IC50 for LXRα (antagonist activity)) of 0.825 µM.

With O=S(=O)(c1ccccc1)N(CC(F)(F)F)c1ccc(C(O)(C(F)(F)F)C(F)(F)F)cc1 [TO901317] the “Average percentage pulled down of the spiked concentration” value ([5]; His-TF-LXRα group) was 89%, the “Average percentage pulled down of the spiked concentration” value ([5]; control group (His-TF protein without LXRα)) was 10% and the “Recovery in pull-down by recombinant LXRα” value (“Recovery in pull-down” for short) ([5]; spiked at 0.25 μg/L) was 100%±3%. The “Recovery in pull-down” value ([5]; spiked at 2.5 μg/L) was 85%±5%, the “Recovery in pull-down” value ([5]; spiked at 25 μg/L) was 80%±0.7% and the “Recovery in pull-down” value ([5]; spiked at 250 μg/L) was 92%±4%. For the same molecule, the “ABCA1 gene expression in cells co-exposed to TPHP, versus TPHP alone” value [6] was “dose-dependently higher” and the “ABCG1 gene expression in cells co-exposed to TPHP, versus TPHP alone” value [7] was “dose-dependently higher”.
